Test results published in patent US20050054667A1, “Method of treating or inhibiting anti-arrhythmic events in male human patients” (Solvay Pharmaceuticals GmbH, priority 2003, published 2005).

Legend:
[1] = tested on: human patients with atrial fibrillation; test: Phase II clinical study: conversion of recent onset atrial fibrillation to normal sinus rhythm (NSR) by intravenous tedisamil; assay type: in vivo; conditions: ITT sample, DC cardioversion excluded
Description: (§1) This first clinical study in humans was a Multi-Center, Double-Blind, Randomized, Placebo-Controlled, Sequential Ascending Dose Groups Study to evaluate the Efficacy and Safety of Intravenous Tedisamil in the Rapid Conversion to Normal Sinus Rhythm in Patients with Atrial Fibrillation or Flutter. The active ingredient used was tedisamil dihydrochloride. The study was designed as a phase II study and executed in 35 to 40 centers in 3 to 4 countries. Study duration: Screening: up to 48 hours; treatment (in-patient): single 30-minute infusion; safety follow up: 24 hours (in-patient) with continuous telemetry and 28 day safety follow up.
(§2) Secondary efficacy objectives were to determine the percentage of human patients remaining in sinus rhythm at 2.5 hours after initiation of the intravenous infusion of tedisamil versus placebo; to determine the percentage of human patients remaining in sinus rhythm at 24 hours after initiation of the intravenous infusion of tedisamil versus placebo; to determine the time to conversion after the start of the infusion of tedisamil versus placebo; and to determine the dose- and plasma concentration-response relationships of tedisamil versus placebo. Safety objective: determining the safety and tolerability of tedisamil versus placebo.
(§3) The following methodology for the study in humans was applied: A multi-center, double-blind, randomized, placebo-controlled, sequential ascending dose groups study to evaluate the efficacy and safety of intravenous tedisamil versus placebo. The study drug was infused over 30 minutes, receiving half the dose within 10 minutes and half the dose within the remaining 20 minutes The first patient group received 0.4 mg/kg of body weight, infused as 0.2 mg/kg of body weight within 10 minutes, continued with 0.2 mg/kg of body weight infused within 20 minutes. The next higher dose 0.6 mg/kg of body weight (0.3 mg/kg of body weight infused over 10 min, continued with 0.3 mg/kg of body weight infused over 20 minutes) was only administered after the initial dose has been assessed (blinded) and found to be safe. A third stage may be added with a higher dose. Tedisamil blood concentrations were assessed during the infusion (at 10 and 30 minutes), at conversion to normal sinus rhythm, at recurrence and 24 hours after start of infusion.
(§4) The criteria for patient inclusion in the study was atrial fibrillation or flutter with a duration of more than 3 hours and less than 48 hours, occurring as a first or recurrent episode.
(§5) • Tedisamil (0.4 mg/kg body weight) • Tedisamil (0.6 mg/kg body weight) Both dosages were given as an intravenous regimen. Reference Therapy, Dose and Mode of Administration:
(§6) The total infusion time is 30 minutes, with half the dose infused within 10 minutes, and half the dose infused within the remaining 20 minutes.
(§7) Primary efficacy: the percentage of human patients converted to normal sinus rhythm (for at least 60 seconds) at any time within 2.5 hours after the initiation of the infusion of study drug.
(§8) All efficacy variables were evaluated separately for human patients with atrial fibrillation and human patients with atrial flutter. Percentages of conversion were compared among treatment groups using a logistic regression model with factors for treatment group and center. Times to conversion were compared among treatment groups using a Cox proportional hazards model with factors for treatment group and center. Dose-response and concentration-response relationships were examined using descriptive statistics.

[2] = tested on: human patients with atrial flutter; test: Phase II clinical study: conversion of atrial flutter to normal sinus rhythm (NSR) by intravenous tedisamil; assay type: in vivo; conditions: ITT sample, DC cardioversion excluded
Description: as §1, §2, §3, §4
• Tedisamil (0.4 mg/kg body weight) • Tedisamil (0.6 mg/kg body weight) Both dosages were given as an intravenous regimen. Reference Therapy, Dose and Mode of Administration: […]
All efficacy variables were evaluated separately for human patients with atrial fibrillation and human patients with atrial flutter. […]

[3] = tested on: Patients with Atrial Fibrillation or Flutter; test: Phase II clinical study: conversion to NSR, overall (atrial fibrillation or flutter); assay type: in vivo, human; conditions: for Conversion to NSR at any time within 2.5 hrs after start of infusion: Overall (fibrillation + flutter), ITT sample, DC cardioversion excluded
Description: as §1, §2, §3, §4, §5, §6, §7, §8

human patients = test: Clinical safety and tolerability of intravenous tedisamil (TdP, safety issues); assay type: in vivo
Description: as §2
Physical examination, ECG, 24-hour Holter monitoring, vital signs, laboratory evaluations and adverse events.

[4] = tested on: Subjects with Recent Onset Atrial Fibrillation or Flutter; test: Phase III clinical study: rapid conversion to NSR by intravenous tedisamil sesquifumarate; assay type: in vivo, human; conditions: active ingredient tedisamil sesquifumarate
Description: This second clinical study in humans was a Multi-Center, Double-Blind, Randomized, Placebo-Controlled, Parallel Design Study to evaluate the Efficacy and Safety of Intravenous Tedisamil Sesquifumarate in the Rapid Conversion to Normal Sinus Rhythm in Subjects with Recent Onset Atrial Fibrillation or Flutter.
The active ingredient used was tedisamil sesqifumarate. […] Study duration: Screening: up to 48 hours; treatment (in-patient): single 30-minute infusion; safety follow up: 24 hours (in-patient) with continuous telemetry and 28 day safety follow up. […]

[5] = female, 0.4 mg/kg i.v. 30-min infusion
[6] = female, 0.6 mg/kg i.v. 30-min infusion
[7] = male, 0.4 mg/kg i.v. 30-min infusion
[8] = male, 0.6 mg/kg i.v. 30-min infusion

C1CCC2(C1)C1CN(CC3CC3)CC2CN(CC2CC2)C1 [Tedisamil, N,N′-dicyclopropyl-methyl-9,9-tetramethylen-3,7-diazabicyclo[3,3,1]nonane]
Conversion to NSR at any time within 2.5 hrs after start of infusion [1, 5]: 6/17 (35.3%) | Conversion to NSR at any time within 2.5 hrs after start of infusion [1, 6]: 6/16 (37.5%) | Conversion to NSR at any time within 2.5 hrs after start of infusion ([1]; female, age <65 yrs, 0.4 mg/kg i.v.): 2/5 (40.0%) | Conversion to NSR at any time within 2.5 hrs after start of infusion ([1]; female, age <65 yrs, 0.6 mg/kg i.v.): 1/3 (33.3%) | Conversion to NSR at any time within 2.5 hrs after start of infusion ([1]; female, age >=65 yrs, 0.4 mg/kg i.v.): 4/12 (33.3%) | Conversion to NSR at any time within 2.5 hrs after start of infusion ([1]; female, age >=65 yrs, 0.6 mg/kg i.v.): 5/13 (38.5%) | Conversion to NSR at any time within 2.5 hrs after start of infusion [1, 7]: 18/35 (51.4%) | Conversion to NSR at any time within 2.5 hrs after start of infusion [1, 8]: 18/26 (69.2%) | Conversion to NSR at any time within 2.5 hrs after start of infusion ([1]; male, age <65 yrs, 0.4 mg/kg i.v.): 10/20 (50.0%) | Conversion to NSR at any time within 2.5 hrs after start of infusion ([1]; male, age <65 yrs, 0.6 mg/kg i.v.): 13/18 (72.2%) | Conversion to NSR at any time within 2.5 hrs after start of infusion ([1]; male, age >=65 yrs, 0.4 mg/kg i.v.): 8/15 (51.4%) | Conversion to NSR at any time within 2.5 hrs after start of infusion ([1]; male, age >=65 yrs, 0.6 mg/kg i.v.): 5/8 (62.5%) | Conversion to NSR at any time within 2.5 hrs after start of infusion (patients converted/total) ([2]; female, 0.4 mg/kg i.v. 30-min infusion, percentage not given): 0/2 | Conversion to NSR at any time within 2.5 hrs after start of infusion [2, 6]: 2/6 (33.3%) | Conversion to NSR at any time within 2.5 hrs after start of infusion [2, 7]: 1/7 (14.3%) | Conversion to NSR at any time within 2.5 hrs after start of infusion [2, 8]: 1/5 (20.0%) | Effect of extension of infusion on conversion rates ([3]; Extension of infusion beyond the times indicated (30 minutes)): did not produce higher conversion rates | Gender difference related to efficacy (conversion rate, male vs female patients) ([3]; First (Phase II) study, active ingredient tedisamil dihydrochloride): higher conversion rate compared to women | Conversion to NSR at any time within 2.5 hrs after start of infusion [3, 5]: 6/19 (31.6%) | Conversion to NSR at any time within 2.5 hrs after start of infusion [3, 6]: 8/22 (36.4%) | Conversion to NSR at any time within 2.5 hrs after start of infusion [3, 7]: 19/42 (45.2%) | Conversion to NSR at any time within 2.5 hrs after start of infusion [3, 8]: 19/31 (61.3%) | Observed TdP (Torsade de Point), distribution by gender (human patients; 30 min infusion regimen): Almost all observed TdP (Torsade de Point) in 30 min regimen were in female human patients | Safety issues, male vs female patients (human patients; First (Phase II) study): fewer safety issues than female human patients | TdP in male human patients (human patients; high dosage on 0.72 in 3114 study): Only one human patient showed TdP | Gender difference related to efficacy (conversion rate, male vs female patients) [4]: higher conversion rate compared to women
